Laboratory results reported in patent US20020137929A1, “1 - (3-heterocyclylphenyl) isothiourea, -isourea, -guanidine and -amidine herbicidal agents” (Intellectual Property Department, BASF Aktiengesellschaft, priority 1998, published 2002).

Assays:
[1] = test system: CHEAL (Lambsquarters, Common); experiment: Preemergence herbicidal evaluation; assay type: in vivo, Chenopodium album; conditions: preemergence, rated 4-5 weeks after treatment, 0-9 scale
Summary of the method: (§1)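 Herbicidal effect scored visually, 0-9, at 4 to 5 weeks against a control; compound applied preemergence by aqueous acetone spray to seeded soil at about 0.0156 to 0.500 kg/ha.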

[2] = test system: TRZAWR (Wheat, Winter, cv Riband); experiment: Preemergence herbicidal evaluation; assay type: in vivo, Triticum aestivum; conditions: preemergence, rated 4-5 weeks after treatment, 0-9 scale
Summary of the method: as §1

ZEAMX (Corn, Field) [3] = experiment: Preemergence herbicidal evaluation; assay type: in vivo, Zea mays; conditions: preemergence, rated 4-5 weeks after treatment, 0-9 scale
Summary of the method: as §1

CYPSE (Flatsedge) [4] = experiment: Preemergence weed control under flooded paddy conditions; assay type: in vivo, Cyperus serotinus; conditions: rated 3-4 weeks after treatment
Summary of the method: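 Seeds or propagules sown in silt loam kept flooded 1.5-3 cm; compounds in 50/50 acetone/water pipetted into flood water at about 0.0313 to 0.500 kg/ha. Greenhouse; visual 0-9 rating versus untreated control 3-4 weeks after treatment.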

[5] = test system: ECHORC (Watergrass (Calif.)); experiment: as above; assay type: in vivo, Echinochloa oryzoides; conditions: rated 3-4 weeks after treatment
Summary of the method: (§2)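 Ratings on a 0-9 visual scale cover stand, vigor, malformation, size, chlorosis and overall appearance relative to a control, taken three to four weeks post-treatment. Application was into flood water over freshly sown silt loam at roughly 0.0313 to 0.500 kg/ha.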

GALAP (Galium) = experiment: Postemergence herbicidal evaluation; assay type: in vivo, Galium aparine; conditions: postemergence
Summary of the method: (§3)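 Two-week seedlings sprayed postemergence at 40 psi; formulation: 1:1 acetone/water, 0.5% TWEEN 20; application ≈0.0156–0.500 kg/ha. Greenhouse grow-out, then 0–9 visual scoring at 4–5 weeks.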

CASOB (Sicklepod) = experiment: Postemergence herbicidal evaluation; assay type: in vivo, Cassia obtusifolia; conditions: postemergence
Summary of the method: as §3

ZEAMX (Corn, Field) [6] = experiment: Postemergence herbicidal evaluation; assay type: in vivo, Zea mays; conditions: postemergence
Summary of the method: as §3

[7] = test system: IPOHE (Morningglory, Ivyleaf); experiment: Preemergence herbicidal evaluation; assay type: in vivo, Ipomoea hederacea; conditions: preemergence, rated 4-5 weeks after treatment, 0-9 scale
Summary of the method: as §1

[8] = test system: ECHORC (Watergrass (Calif.)); experiment: Postemergence weed control under flooded paddy conditions; assay type: in vivo, Echinochloa oryzoides; conditions: postemergence weeds, rated 3 to 4 weeks after treatment
Summary of the method: (§4)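 Herbicidal effect is judged by eye on a 0–9 scale versus control, 3–4 weeks after dosing. Dosing is into flood water kept 1.5–3 cm over the soil, at about 0.0313–0.500 kg/ha in aqueous/acetone 50/50 v/v, on 3–5 cm weeds and 1.5–2.5-leaf rice seedlings.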

CYPSE (Flatsedge) [9] = experiment: as above; assay type: in vivo, Cyperus serotinus; conditions: postemergence weeds, rated 3 to 4 weeks after treatment
Summary of the method: as §4

CYPIR (Rice Flatsedge) = experiment: Preemergence weed control under flooded paddy conditions; assay type: in vivo, Cyperus iria; conditions: rated 3-4 weeks after treatment
Summary of the method: as §2

AMBEL (Ragweed, Common) = experiment: Preemergence herbicidal evaluation; assay type: in vivo, Ambrosia artemisifolia; conditions: preemergence, rated 4-5 weeks after treatment, 0-9 scale
Summary of the method: as §1

ORYSAT (Rice, Tebonnet) = experiment: Preemergence herbicidal evaluation; assay type: in vivo, Oryza sativa, (L.) Tebonnet; conditions: preemergence, rated 4-5 weeks after treatment, 0-9 scale
Summary of the method: as §1

CN1C(=O)C(CC(=O)Nc2ccccc2)SC1=Nc1cc(-n2c(=O)cc(C(F)(F)F)n(C)c2=O)c(F)cc1Cl (stereo not shown) [Compound 91, 2-{{2-Chloro-5-[3,6-dihydro-3-methyl-2,6-dioxo-4-(trifluoromethyl)-1(2H)-pyrimidinyl]-4-fluorophenyl}imino}-3-methyl-4-oxo-5-thiazolidineacetanilide] gave a CHEAL rating ([1]; 0.1250 kg/ha) of 4.0, a CHEAL rating ([1]; 0.2500 kg/ha) of 9.0 and a TRZAWR rating ([2]; 0.1250 kg/ha) of 0.0. The TRZAWR rating ([2]; 0.2500 kg/ha) was 0.0, the ZEAMX rating (ZEAMX (Corn, Field) [3]; 0.1250 kg/ha) was 0.0 and the ZEAMX rating (ZEAMX (Corn, Field) [3]; 0.2500 kg/ha) was 0.0. The “CYPSE herbicidal effect rating” value (CYPSE (Flatsedge) [4]; 0.0313 kg/ha) was 0.0, the “CYPSE herbicidal effect rating” value (CYPSE (Flatsedge) [4]; 0.0625 kg/ha) was 0.0 and the “CYPSE herbicidal effect rating” value (CYPSE (Flatsedge) [4]; 0.1250 kg/ha) was 0.0. For the same compound, the “CYPSE herbicidal effect rating” value (CYPSE (Flatsedge) [4]; 0.2500 kg/ha) was 0.0, the “ECHORC herbicidal effect rating” value ([5]; 0.0313 kg/ha) was 0.0 and the “ECHORC herbicidal effect rating” value ([5]; 0.0625 kg/ha) was 0.0. For the same compound, the “ECHORC herbicidal effect rating” value ([5]; 0.1250 kg/ha) was 2.0, the “ECHORC herbicidal effect rating” value ([5]; 0.2500 kg/ha) was 4.0 and the GALAP herbicidal rating (GALAP (Galium); rate 0.0158 kg/ha) was 0.0. The GALAP herbicidal rating (GALAP (Galium); rate 0.0315 kg/ha) was 0.0, the GALAP herbicidal rating (GALAP (Galium); rate 0.0630 kg/ha) was 0.0 and the CASOB herbicidal rating (CASOB (Sicklepod); rate 0.0158 kg/ha) was 0.0. It also gave a CASOB herbicidal rating (CASOB (Sicklepod); rate 0.0315 kg/ha) of 0.0, a CASOB herbicidal rating (CASOB (Sicklepod); rate 0.0630 kg/ha) of 4.0 and a ZEAMX herbicidal rating (ZEAMX (Corn, Field) [6]; rate 0.0158 kg/ha) of 4.0. The ZEAMX herbicidal rating (ZEAMX (Corn, Field) [6]; rate 0.0315 kg/ha) was 4.0, the ZEAMX herbicidal rating (ZEAMX (Corn, Field) [6]; rate 0.0630 kg/ha) was 5.0 and the IPOHE rating ([7]; 0.1250 kg/ha) was 0.0. For the same compound, the IPOHE rating ([7]; 0.2500 kg/ha) was 0.0, the “Herbicidal rating ECHORC” value ([8]; Rate 0.0313 kg/ha) was 0.0 and the “Herbicidal rating ECHORC” value ([8]; Rate 0.0625 kg/ha) was 0.0. The “Herbicidal rating ECHORC” value ([8]; Rate 0.1250 kg/ha) was 2.0, the “Herbicidal rating ECHORC” value ([8]; Rate 0.2500 kg/ha) was 4.0 and the “Herbicidal rating CYPSE” value (CYPSE (Flatsedge) [9]; Rate 0.0313 kg/ha) was 0.0. For the same compound, the “Herbicidal rating CYPSE” value (CYPSE (Flatsedge) [9]; Rate 0.0625 kg/ha) was 0.0, the “Herbicidal rating CYPSE” value (CYPSE (Flatsedge) [9]; Rate 0.1250 kg/ha) was 0.0 and the “Herbicidal rating CYPSE” value (CYPSE (Flatsedge) [9]; Rate 0.2500 kg/ha) was 0.0. The “CYPIR herbicidal effect rating” value (CYPIR (Rice Flatsedge); 0.0313 kg/ha) was 0.0, the “CYPIR herbicidal effect rating” value (CYPIR (Rice Flatsedge); 0.0625 kg/ha) was 0.0 and the “CYPIR herbicidal effect rating” value (CYPIR (Rice Flatsedge); 0.1250 kg/ha) was 0.0. For the same compound, the “CYPIR herbicidal effect rating” value (CYPIR (Rice Flatsedge); 0.2500 kg/ha) was 0.0, the AMBEL rating (AMBEL (Ragweed, Common); 0.1250 kg/ha) was 0.0 and the AMBEL rating (AMBEL (Ragweed, Common); 0.2500 kg/ha) was 0.0. It also gave an ORYSAT rating (ORYSAT (Rice, Tebonnet); 0.1250 kg/ha) of 0.0 and an ORYSAT rating (ORYSAT (Rice, Tebonnet); 0.2500 kg/ha) of 0.0.

Compound C#CCOC(=O)CC1SC(=Nc2cc(-n3c(=O)cc(C(F)(F)F)n(C)c3=O)c(F)cc2Cl)N(C)C1=O (stereo not shown) [Compound 90, 2-Propynyl 2-{{2-chloro-5-[3,6-dihydro-3-methyl-2,6-dioxo-4-(trifluoromethyl)-1(2H)-pyrimidinyl]-4-fluorophenyl}imino}-3-methyl-4-oxo-5-thiazolidineacetate] has a CHEAL rating ([1]; 0.0313 kg/ha) of 7.0, a CHEAL rating ([1]; 0.0625 kg/ha) of 9.0 and a CHEAL rating ([1]; 0.1250 kg/ha) of 9.0. For the same compound, the CHEAL rating ([1]; 0.2500 kg/ha) was 9.0, the TRZAWR rating ([2]; 0.0313 kg/ha) was 0.0 and the TRZAWR rating ([2]; 0.0625 kg/ha) was 0.0. For the same compound, the TRZAWR rating ([2]; 0.1250 kg/ha) was 2.0, the TRZAWR rating ([2]; 0.2500 kg/ha) was 7.0 and the ZEAMX rating (ZEAMX (Corn, Field) [3]; 0.0313 kg/ha) was 0.0. It also gave a ZEAMX rating (ZEAMX (Corn, Field) [3]; 0.0625 kg/ha) of 0.0, a ZEAMX rating (ZEAMX (Corn, Field) [3]; 0.1250 kg/ha) of 7.0 and a ZEAMX rating (ZEAMX (Corn, Field) [3]; 0.2500 kg/ha) of 8.0. For the same compound, the “CYPSE herbicidal effect rating” value (CYPSE (Flatsedge) [4]; 0.0313 kg/ha) was 0.0, the “CYPSE herbicidal effect rating” value (CYPSE (Flatsedge) [4]; 0.0625 kg/ha) was 0.0 and the “CYPSE herbicidal effect rating” value (CYPSE (Flatsedge) [4]; 0.1250 kg/ha) was 0.0. The “CYPSE herbicidal effect rating” value (CYPSE (Flatsedge) [4]; 0.2500 kg/ha) was 3.0, the “ECHORC herbicidal effect rating” value ([5]; 0.0313 kg/ha) was 0.0 and the “ECHORC herbicidal effect rating” value ([5]; 0.0625 kg/ha) was 0.0. For the same compound, the “ECHORC herbicidal effect rating” value ([5]; 0.1250 kg/ha) was 0.0, the “ECHORC herbicidal effect rating” value ([5]; 0.2500 kg/ha) was 3.0 and the GALAP herbicidal rating (GALAP (Galium); rate 0.0158 kg/ha) was 5.0. It also gave a GALAP herbicidal rating (GALAP (Galium); rate 0.0315 kg/ha) of 7.0, a GALAP herbicidal rating (GALAP (Galium); rate 0.0630 kg/ha) of 7.0 and a CASOB herbicidal rating (CASOB (Sicklepod); rate 0.0158 kg/ha) of 2.0. For the same compound, the CASOB herbicidal rating (CASOB (Sicklepod); rate 0.0315 kg/ha) was 3.0, the CASOB herbicidal rating (CASOB (Sicklepod); rate 0.0630 kg/ha) was 4.0 and the ZEAMX herbicidal rating (ZEAMX (Corn, Field) [6]; rate 0.0158 kg/ha) was 8.0. The ZEAMX herbicidal rating (ZEAMX (Corn, Field) [6]; rate 0.0315 kg/ha) was 8.5, the ZEAMX herbicidal rating (ZEAMX (Corn, Field) [6]; rate 0.0630 kg/ha) was 9.0 and the IPOHE rating ([7]; 0.0313 kg/ha) was 1.0. The IPOHE rating ([7]; 0.0625 kg/ha) was 4.0, the IPOHE rating ([7]; 0.1250 kg/ha) was 9.0 and the IPOHE rating ([7]; 0.2500 kg/ha) was 9.0. For the same compound, the “Herbicidal rating ECHORC” value ([8]; Rate 0.0313 kg/ha) was 0.0, the “Herbicidal rating ECHORC” value ([8]; Rate 0.0625 kg/ha) was 0.0 and the “Herbicidal rating ECHORC” value ([8]; Rate 0.1250 kg/ha) was 0.0. For the same compound, the “Herbicidal rating ECHORC” value ([8]; Rate 0.2500 kg/ha) was 3.0, the “Herbicidal rating CYPSE” value (CYPSE (Flatsedge) [9]; Rate 0.0313 kg/ha) was 0.0 and the “Herbicidal rating CYPSE” value (CYPSE (Flatsedge) [9]; Rate 0.0625 kg/ha) was 0.0. The “Herbicidal rating CYPSE” value (CYPSE (Flatsedge) [9]; Rate 0.1250 kg/ha) was 0.0, the “Herbicidal rating CYPSE” value (CYPSE (Flatsedge) [9]; Rate 0.2500 kg/ha) was 3.0 and the “CYPIR herbicidal effect rating” value (CYPIR (Rice Flatsedge); 0.0313 kg/ha) was 0.0. The “CYPIR herbicidal effect rating” value (CYPIR (Rice Flatsedge); 0.0625 kg/ha) was 0.0, the “CYPIR herbicidal effect rating” value (CYPIR (Rice Flatsedge); 0.1250 kg/ha) was 1.0 and the “CYPIR herbicidal effect rating” value (CYPIR (Rice Flatsedge); 0.2500 kg/ha) was 3.0. It also gave an AMBEL rating (AMBEL (Ragweed, Common); 0.0313 kg/ha) of 0.0, an AMBEL rating (AMBEL (Ragweed, Common); 0.0625 kg/ha) of 3.0 and an AMBEL rating (AMBEL (Ragweed, Common); 0.1250 kg/ha) of 9.0. The AMBEL rating (AMBEL (Ragweed, Common); 0.2500 kg/ha) was 9.0, the ORYSAT rating (ORYSAT (Rice, Tebonnet); 0.0313 kg/ha) was 0.0 and the ORYSAT rating (ORYSAT (Rice, Tebonnet); 0.0625 kg/ha) was 0.0. For the same compound, the ORYSAT rating (ORYSAT (Rice, Tebonnet); 0.1250 kg/ha) was 2.0 and the ORYSAT rating (ORYSAT (Rice, Tebonnet); 0.2500 kg/ha) was 9.0.
